Data taken from ChEMBL document CHEMBL5291721, “A preclinical secondary pharmacology resource illuminates target-adverse drug reaction associations of marketed drugs” (Nat Commun, 2023).

How the values were obtained:
[1] = target: Sodium-dependent dopamine transporter (Homo sapiens, UniProt Q01959)
D(3) dopamine receptor = D(3) dopamine receptor (Homo sapiens, UniProt P35462)
Histamine H3 receptor = Histamine H3 receptor (Homo sapiens, UniProt Q9Y5N1)
Thromboxane A2 receptor [2] = target: T1, Thromboxane A2 receptor (Homo sapiens, UniProt P21731); assay type: functional, cell-based
T1 sequence (P21731 whole entry): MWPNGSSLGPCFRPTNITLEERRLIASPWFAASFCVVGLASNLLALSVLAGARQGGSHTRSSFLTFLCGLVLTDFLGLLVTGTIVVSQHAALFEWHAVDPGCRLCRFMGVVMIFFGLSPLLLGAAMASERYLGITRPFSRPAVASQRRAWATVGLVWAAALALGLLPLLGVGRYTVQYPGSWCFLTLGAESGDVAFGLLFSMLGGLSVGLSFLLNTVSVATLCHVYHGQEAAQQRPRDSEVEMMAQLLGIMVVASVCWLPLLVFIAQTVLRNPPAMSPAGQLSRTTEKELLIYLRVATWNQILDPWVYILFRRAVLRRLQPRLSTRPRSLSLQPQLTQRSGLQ

Progesterone receptor = target: T2, Progesterone receptor (Homo sapiens, UniProt P06401)
T2 sequence (P06401 whole entry): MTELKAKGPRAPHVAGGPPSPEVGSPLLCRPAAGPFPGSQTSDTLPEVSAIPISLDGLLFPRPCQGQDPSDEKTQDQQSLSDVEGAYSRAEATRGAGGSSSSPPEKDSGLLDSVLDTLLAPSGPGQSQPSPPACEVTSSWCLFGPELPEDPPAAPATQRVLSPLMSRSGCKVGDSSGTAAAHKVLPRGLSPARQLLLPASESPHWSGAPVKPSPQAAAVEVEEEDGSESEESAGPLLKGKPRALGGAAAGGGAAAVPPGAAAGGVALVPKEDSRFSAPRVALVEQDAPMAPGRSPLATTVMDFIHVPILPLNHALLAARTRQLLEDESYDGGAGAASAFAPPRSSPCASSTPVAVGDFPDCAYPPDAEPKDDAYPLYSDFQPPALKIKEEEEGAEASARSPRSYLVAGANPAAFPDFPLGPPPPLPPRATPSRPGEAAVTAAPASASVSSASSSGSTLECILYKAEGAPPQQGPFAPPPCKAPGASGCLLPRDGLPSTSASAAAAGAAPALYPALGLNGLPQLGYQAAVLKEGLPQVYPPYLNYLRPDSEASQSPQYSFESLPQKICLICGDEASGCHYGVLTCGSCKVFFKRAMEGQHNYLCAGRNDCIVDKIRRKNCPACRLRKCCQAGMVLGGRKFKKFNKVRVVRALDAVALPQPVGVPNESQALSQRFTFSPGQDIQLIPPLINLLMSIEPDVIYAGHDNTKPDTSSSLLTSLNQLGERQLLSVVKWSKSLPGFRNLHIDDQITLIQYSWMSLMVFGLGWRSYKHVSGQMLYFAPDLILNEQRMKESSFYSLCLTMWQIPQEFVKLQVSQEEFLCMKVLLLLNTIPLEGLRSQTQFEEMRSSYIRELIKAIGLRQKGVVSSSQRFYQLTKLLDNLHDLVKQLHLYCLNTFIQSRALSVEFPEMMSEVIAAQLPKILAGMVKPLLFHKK

[3] = target: T3, 5-hydroxytryptamine receptor 1A (Homo sapiens, UniProt P08908)
T3 sequence (P08908 whole entry): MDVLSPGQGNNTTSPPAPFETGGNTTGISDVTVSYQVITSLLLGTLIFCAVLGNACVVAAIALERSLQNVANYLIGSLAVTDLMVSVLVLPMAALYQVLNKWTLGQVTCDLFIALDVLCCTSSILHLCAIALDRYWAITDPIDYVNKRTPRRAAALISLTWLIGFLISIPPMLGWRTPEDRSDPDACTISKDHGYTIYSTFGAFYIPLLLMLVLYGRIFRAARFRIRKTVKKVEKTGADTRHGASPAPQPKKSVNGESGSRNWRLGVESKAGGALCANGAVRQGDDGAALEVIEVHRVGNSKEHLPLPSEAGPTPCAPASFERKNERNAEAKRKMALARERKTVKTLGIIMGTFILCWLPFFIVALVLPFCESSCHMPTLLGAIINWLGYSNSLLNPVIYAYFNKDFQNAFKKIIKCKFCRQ

[4] = target: Prostaglandin G/H synthase 1 (Homo sapiens, UniProt P23219); assay type: functional
Sequence of Prostaglandin G/H synthase 1 (P23219 whole entry): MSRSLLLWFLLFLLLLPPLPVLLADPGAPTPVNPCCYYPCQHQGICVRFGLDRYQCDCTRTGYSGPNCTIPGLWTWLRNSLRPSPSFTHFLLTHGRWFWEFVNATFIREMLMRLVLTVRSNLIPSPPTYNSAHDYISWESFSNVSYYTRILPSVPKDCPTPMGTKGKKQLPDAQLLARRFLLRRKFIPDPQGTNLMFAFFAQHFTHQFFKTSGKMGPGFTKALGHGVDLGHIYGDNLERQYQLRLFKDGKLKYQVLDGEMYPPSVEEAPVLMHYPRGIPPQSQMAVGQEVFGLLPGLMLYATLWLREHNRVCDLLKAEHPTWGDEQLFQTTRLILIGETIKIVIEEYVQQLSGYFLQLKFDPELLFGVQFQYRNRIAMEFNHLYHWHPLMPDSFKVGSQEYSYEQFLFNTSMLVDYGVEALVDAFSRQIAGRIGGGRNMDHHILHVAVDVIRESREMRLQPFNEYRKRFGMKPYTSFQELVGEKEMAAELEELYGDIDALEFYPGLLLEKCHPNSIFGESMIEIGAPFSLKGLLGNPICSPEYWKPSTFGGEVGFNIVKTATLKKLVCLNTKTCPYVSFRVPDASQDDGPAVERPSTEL

[5] = target: T4, Alpha-2A adrenergic receptor (Homo sapiens, UniProt P08913)
T4 sequence (P08913 whole entry): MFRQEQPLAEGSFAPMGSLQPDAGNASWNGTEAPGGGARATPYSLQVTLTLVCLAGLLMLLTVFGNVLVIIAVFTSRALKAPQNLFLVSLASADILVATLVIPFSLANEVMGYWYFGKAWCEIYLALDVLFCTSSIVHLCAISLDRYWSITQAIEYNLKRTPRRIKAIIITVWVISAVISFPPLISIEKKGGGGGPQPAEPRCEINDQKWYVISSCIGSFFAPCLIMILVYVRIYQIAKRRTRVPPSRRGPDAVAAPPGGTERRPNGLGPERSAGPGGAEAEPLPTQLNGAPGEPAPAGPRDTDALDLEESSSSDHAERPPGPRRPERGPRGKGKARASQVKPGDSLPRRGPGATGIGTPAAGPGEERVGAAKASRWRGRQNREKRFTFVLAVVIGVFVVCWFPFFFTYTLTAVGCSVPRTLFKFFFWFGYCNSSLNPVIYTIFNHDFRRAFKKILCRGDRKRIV

[6] = target: 5-hydroxytryptamine receptor 2B (Homo sapiens, UniProt P41595); assay type: functional, cell-based
Sequence of 5-hydroxytryptamine receptor 2B (P41595 whole entry): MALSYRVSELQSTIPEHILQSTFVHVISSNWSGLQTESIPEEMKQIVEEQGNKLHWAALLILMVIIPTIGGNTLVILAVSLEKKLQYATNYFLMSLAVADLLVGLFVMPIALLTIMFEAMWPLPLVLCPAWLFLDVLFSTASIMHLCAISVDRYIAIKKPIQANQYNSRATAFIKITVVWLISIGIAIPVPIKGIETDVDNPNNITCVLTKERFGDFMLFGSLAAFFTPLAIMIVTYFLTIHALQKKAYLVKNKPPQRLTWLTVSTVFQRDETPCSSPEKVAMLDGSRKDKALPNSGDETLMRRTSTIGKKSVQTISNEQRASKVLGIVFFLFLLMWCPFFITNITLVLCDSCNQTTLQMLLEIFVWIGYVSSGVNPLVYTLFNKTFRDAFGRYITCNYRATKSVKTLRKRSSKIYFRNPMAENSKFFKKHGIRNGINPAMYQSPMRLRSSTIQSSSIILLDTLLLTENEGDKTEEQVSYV

[7] = target: Voltage-gated inwardly rectifying potassium channel KCNH2 (Homo sapiens, UniProt Q12809); assay type: functional
Sequence of Voltage-gated inwardly rectifying potassium channel KCNH2 (Q12809 whole entry): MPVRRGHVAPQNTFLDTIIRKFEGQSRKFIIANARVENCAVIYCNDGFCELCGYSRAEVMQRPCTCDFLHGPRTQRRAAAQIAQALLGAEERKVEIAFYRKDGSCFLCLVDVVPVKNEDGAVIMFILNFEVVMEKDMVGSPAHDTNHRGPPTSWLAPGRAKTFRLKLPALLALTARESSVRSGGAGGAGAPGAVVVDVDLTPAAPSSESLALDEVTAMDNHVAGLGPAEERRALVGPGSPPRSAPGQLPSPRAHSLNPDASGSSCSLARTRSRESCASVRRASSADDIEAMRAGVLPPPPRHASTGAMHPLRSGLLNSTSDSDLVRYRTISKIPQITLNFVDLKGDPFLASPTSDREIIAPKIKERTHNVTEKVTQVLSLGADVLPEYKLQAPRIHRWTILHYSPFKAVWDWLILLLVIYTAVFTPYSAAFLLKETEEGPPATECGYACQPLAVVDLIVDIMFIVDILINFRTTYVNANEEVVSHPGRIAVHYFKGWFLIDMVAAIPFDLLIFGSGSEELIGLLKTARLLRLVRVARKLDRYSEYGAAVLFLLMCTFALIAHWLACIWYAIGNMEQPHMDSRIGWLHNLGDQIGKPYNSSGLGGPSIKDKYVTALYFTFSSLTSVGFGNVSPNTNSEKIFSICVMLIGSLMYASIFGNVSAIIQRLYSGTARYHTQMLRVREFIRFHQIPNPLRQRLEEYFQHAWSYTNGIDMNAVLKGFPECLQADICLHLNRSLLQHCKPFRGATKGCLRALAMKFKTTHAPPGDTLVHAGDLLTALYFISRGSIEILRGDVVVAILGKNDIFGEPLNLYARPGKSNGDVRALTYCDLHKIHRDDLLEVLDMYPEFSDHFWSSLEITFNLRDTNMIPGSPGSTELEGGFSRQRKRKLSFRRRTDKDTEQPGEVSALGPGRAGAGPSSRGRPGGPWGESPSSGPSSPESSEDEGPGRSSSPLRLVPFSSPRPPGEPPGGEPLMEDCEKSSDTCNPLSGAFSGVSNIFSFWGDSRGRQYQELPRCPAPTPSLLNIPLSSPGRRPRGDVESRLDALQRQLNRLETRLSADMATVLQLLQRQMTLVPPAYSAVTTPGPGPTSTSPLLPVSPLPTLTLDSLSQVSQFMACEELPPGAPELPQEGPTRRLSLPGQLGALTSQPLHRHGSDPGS

[8] = target: cGMP-inhibited 3',5'-cyclic phosphodiesterase 3A (Homo sapiens, UniProt Q14432); assay type: functional
Sequence of cGMP-inhibited 3',5'-cyclic phosphodiesterase 3A (Q14432 whole entry): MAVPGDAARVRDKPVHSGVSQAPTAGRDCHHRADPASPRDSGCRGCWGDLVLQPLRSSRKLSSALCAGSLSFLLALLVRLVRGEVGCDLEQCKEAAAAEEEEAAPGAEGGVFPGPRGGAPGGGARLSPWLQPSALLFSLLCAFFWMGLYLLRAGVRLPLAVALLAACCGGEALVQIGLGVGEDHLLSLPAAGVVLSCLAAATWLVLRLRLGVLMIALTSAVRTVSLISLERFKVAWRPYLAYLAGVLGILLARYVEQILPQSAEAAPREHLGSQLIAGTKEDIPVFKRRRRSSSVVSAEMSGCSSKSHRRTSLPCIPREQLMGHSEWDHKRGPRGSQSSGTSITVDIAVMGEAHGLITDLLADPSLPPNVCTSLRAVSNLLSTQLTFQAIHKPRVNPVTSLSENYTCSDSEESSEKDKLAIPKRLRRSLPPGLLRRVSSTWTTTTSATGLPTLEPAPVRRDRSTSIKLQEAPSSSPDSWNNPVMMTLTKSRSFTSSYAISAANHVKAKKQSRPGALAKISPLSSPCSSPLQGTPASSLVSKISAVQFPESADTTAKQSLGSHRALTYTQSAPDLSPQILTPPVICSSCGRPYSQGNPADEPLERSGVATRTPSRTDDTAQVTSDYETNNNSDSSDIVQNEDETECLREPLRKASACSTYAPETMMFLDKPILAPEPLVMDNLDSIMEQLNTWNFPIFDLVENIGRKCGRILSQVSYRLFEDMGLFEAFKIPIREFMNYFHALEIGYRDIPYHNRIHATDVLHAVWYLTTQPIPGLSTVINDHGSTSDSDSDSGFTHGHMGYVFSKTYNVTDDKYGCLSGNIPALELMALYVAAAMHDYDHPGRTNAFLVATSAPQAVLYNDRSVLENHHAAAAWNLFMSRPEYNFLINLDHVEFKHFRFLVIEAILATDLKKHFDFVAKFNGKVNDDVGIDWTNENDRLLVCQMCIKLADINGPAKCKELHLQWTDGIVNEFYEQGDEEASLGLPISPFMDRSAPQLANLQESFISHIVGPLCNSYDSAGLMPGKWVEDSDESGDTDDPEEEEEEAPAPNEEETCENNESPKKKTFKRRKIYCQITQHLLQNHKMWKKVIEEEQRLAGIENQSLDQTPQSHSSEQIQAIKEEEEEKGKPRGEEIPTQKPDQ

Thromboxane A2 receptor [9] = target: T1, Thromboxane A2 receptor; assay type: functional, cell-based; remark: listed apart in the source

Measured: AC50
Further: assay procedure not described here.

Sequence of Histamine H3 receptor (Q9Y5N1 whole entry): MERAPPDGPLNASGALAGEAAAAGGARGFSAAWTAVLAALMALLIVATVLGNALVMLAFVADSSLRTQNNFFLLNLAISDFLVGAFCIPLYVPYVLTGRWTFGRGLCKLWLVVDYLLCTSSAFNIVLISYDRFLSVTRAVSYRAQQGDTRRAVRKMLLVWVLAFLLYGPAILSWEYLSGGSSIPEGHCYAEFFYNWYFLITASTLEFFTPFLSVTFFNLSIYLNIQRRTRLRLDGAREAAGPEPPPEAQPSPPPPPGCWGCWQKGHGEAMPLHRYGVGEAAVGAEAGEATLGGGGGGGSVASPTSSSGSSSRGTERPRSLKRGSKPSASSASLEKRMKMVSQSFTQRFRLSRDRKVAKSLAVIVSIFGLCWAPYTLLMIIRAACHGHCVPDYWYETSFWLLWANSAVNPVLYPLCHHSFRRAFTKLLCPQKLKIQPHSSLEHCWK
Sequence of Sodium-dependent dopamine transporter (Q01959 whole entry): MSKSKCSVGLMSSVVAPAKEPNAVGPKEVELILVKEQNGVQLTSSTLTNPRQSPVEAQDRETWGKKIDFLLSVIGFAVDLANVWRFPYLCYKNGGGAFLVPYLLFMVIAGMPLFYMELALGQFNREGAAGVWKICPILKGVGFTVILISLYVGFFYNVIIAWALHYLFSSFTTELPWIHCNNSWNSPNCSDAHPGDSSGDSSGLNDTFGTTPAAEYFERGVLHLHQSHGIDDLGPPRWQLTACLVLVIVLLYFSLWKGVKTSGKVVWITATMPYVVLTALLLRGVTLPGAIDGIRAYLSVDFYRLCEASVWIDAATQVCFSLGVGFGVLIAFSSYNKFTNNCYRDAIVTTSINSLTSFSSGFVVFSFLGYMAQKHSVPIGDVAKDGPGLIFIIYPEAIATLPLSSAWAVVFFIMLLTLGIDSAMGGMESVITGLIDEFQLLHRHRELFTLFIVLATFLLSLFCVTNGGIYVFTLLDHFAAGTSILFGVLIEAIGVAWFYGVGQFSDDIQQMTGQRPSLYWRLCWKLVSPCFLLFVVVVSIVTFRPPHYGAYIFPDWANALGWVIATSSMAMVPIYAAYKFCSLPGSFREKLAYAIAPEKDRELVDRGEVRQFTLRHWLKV
Sequence of D(3) dopamine receptor (P35462 whole entry): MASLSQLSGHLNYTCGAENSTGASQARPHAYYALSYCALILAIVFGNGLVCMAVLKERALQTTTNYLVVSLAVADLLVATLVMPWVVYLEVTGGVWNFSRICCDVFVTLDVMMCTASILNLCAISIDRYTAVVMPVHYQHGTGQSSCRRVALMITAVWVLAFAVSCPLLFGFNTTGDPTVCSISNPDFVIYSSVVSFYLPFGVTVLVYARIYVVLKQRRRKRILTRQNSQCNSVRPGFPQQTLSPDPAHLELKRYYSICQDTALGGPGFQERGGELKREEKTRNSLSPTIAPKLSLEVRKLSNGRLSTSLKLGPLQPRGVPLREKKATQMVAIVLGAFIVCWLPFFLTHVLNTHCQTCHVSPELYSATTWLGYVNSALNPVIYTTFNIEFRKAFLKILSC

Cc1cc(C2CCCCC2)n(O)c(=O)c1 [CICLOPIROX]
> 30 µM: [1] | D(3) dopamine receptor | Histamine H3 receptor | Progesterone receptor | [3] | [4] | [5] | [6] | [7] | [8]
25.4 µM: Thromboxane A2 receptor [2]

CC[C@@H](CO)NC(=O)[C@@H]1C=C2c3cccc4c3c(cn4C)C[C@H]2N(C)C1 [METHYSERGIDE]
> 30 µM: [7]

CC(=O)NO [ACETOHYDROXAMIC ACID]
> 30 µM: [1] | D(3) dopamine receptor | Histamine H3 receptor | Thromboxane A2 receptor [2] | Progesterone receptor | [3] | [4] | [5] | [6] | Thromboxane A2 receptor [9] | [8]

CN[C@@H]1[C@H](O[C@H]2[C@H](O[C@H]3[C@H](O)[C@@H](O)[C@H](NC(=N)N)[C@@H](O)[C@@H]3NC(=N)N)O[C@@H](C)[C@]2(O)CO)O[C@@H](CO)[C@H](O)[C@H]1O [DIHYDROSTREPTOMYCIN]
> 30 µM: [1] | D(3) dopamine receptor | Histamine H3 receptor | Thromboxane A2 receptor [2] | Progesterone receptor | [3] | [4] | [5] | [6] | Thromboxane A2 receptor [9] | [8]

CC(C)[C@H](N)C(=O)OCCOCn1cnc2c(=O)[nH]c(N)nc21 [VALACYCLOVIR]
> 30 µM: [7]

O=C(O)Cc1ccccc1Nc1c(Cl)cccc1Cl [DICLOFENAC]
> 30 µM: [7]
> 3 µM: [1] | D(3) dopamine receptor | Histamine H3 receptor | Thromboxane A2 receptor [2] | Progesterone receptor | [3] | [5] | [6] | Thromboxane A2 receptor [9] | [8]

CC(C)(O/N=C(\C(=O)N[C@@H]1C(=O)N2C(C(=O)[O-])=C(C[n+]3ccccc3)CS[C@H]12)c1csc(N)n1)C(=O)O [CEFTAZIDIME]
> 300 µM: [7]

C[N+](C)(C)CCOC(=O)CCC(=O)OCC[N+](C)(C)C [SUXAMETHONIUM]
> 30 µM: [1] | D(3) dopamine receptor | Histamine H3 receptor | Thromboxane A2 receptor [2] | Progesterone receptor | [3] | [4] | [6] | Thromboxane A2 receptor [9] | [8]
16.6 µM: [5]

O=C1Cc2cc(CCN3CCN(c4nsc5ccccc45)CC3)c(Cl)cc2N1 [ZIPRASIDONE]
0.0875 µM: [1]
0.003 µM: [3]
> 30 µM: Histamine H3 receptor | Thromboxane A2 receptor [2] | Progesterone receptor | [4] | [6] | Thromboxane A2 receptor [9] | [8]

CN(CCOc1ccc(CC2SC(=O)NC2=O)cc1)c1ccccn1 (stereo not drawn) [ROSIGLITAZONE]
13 µM: [7]

CC(C(=O)O)c1ccc2oc(-c3ccc(Cl)cc3)nc2c1 (stereo not drawn) [BENOXAPROFEN]
> 30 µM: [7]

Cc1nnc(SCC2=C(C(=O)O)N3C(=O)[C@@H](NC(=O)Cn4cnnn4)[C@H]3SC2)s1 [CEFAZOLIN]
> 300 µM: [7]

Clc1ccc(Cn2c(CN3CCCC3)nc3ccccc32)cc1 [CLEMIZOLE]
0.86 µM: [7]

CNC(=C[N+](=O)[O-])NCCSCc1csc(CN(C)C)n1 [NIZATIDINE]
> 30 µM: [7]

Cc1onc(-c2c(F)cccc2Cl)c1C(=O)N[C@@H]1C(=O)N2[C@@H]1SC(C)(C)[C@@H]2C(=O)O [FLOXACILLIN]
> 30 µM: [7]
